Target: T1, PorB (wt PorB) (Neisseria meningitidis, UniProt M4GGR4)
T1 construct: outer membrane porin, homotrimer, purified in LDAO and inserted in planar lipid bilayers or liposomes; about 340 residues; expression as described previously
Assay: single-channel electrophysiology, planar black lipid membrane, JULES idealization
Type: binding
Details: +80 mV, 1 M KCl, 10 mM HEPES, pH 7.5; DPhPC/cholesterol 9:1; pore block

T1 sequence (M4GGR4 entry or part of it): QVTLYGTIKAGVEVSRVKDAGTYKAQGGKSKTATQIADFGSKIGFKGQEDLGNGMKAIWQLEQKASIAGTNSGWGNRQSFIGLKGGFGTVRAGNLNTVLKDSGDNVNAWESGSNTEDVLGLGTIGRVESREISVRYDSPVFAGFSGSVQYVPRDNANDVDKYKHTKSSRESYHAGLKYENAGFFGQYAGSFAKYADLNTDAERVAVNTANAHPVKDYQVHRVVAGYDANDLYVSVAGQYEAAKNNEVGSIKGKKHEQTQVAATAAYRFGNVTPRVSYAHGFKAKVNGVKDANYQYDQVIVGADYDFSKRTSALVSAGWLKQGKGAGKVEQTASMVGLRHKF

CC1(C)S[C@@H]2[C@H](NC(=O)[C@H](N)c3ccccc3)C(=O)N2[C@H]1C(=O)O [ampicillin]
residence time τR: 35 ± 1 μs
